{"source": "ChEMBL document CHEMBL5107965", "about": "“The progress of small-molecules and degraders against BCR-ABL for the treatment of CML” (Eur J Med Chem, 2022)", "key": {"[1]": {"test": "Inhibition of Aurora kinase (unknown origin)", "design": "species or system Homo sapiens"}, "[2]": {"test_system": "HL-60", "test": "animal or person", "details": "Mus musculus, HL-60, 528 h, read-out: TGI", "description": "Antitumor activity against human HL-60 cells xenografted in SCID mouse assessed as tumor growth inhibition at 30 mg/kg, iv measured after 22 days relative to control"}, "[3]": {"target": "Tyrosine-protein kinase ABL1 (Homo sapiens, UniProt P00519)", "sequence (P00519 whole entry)": "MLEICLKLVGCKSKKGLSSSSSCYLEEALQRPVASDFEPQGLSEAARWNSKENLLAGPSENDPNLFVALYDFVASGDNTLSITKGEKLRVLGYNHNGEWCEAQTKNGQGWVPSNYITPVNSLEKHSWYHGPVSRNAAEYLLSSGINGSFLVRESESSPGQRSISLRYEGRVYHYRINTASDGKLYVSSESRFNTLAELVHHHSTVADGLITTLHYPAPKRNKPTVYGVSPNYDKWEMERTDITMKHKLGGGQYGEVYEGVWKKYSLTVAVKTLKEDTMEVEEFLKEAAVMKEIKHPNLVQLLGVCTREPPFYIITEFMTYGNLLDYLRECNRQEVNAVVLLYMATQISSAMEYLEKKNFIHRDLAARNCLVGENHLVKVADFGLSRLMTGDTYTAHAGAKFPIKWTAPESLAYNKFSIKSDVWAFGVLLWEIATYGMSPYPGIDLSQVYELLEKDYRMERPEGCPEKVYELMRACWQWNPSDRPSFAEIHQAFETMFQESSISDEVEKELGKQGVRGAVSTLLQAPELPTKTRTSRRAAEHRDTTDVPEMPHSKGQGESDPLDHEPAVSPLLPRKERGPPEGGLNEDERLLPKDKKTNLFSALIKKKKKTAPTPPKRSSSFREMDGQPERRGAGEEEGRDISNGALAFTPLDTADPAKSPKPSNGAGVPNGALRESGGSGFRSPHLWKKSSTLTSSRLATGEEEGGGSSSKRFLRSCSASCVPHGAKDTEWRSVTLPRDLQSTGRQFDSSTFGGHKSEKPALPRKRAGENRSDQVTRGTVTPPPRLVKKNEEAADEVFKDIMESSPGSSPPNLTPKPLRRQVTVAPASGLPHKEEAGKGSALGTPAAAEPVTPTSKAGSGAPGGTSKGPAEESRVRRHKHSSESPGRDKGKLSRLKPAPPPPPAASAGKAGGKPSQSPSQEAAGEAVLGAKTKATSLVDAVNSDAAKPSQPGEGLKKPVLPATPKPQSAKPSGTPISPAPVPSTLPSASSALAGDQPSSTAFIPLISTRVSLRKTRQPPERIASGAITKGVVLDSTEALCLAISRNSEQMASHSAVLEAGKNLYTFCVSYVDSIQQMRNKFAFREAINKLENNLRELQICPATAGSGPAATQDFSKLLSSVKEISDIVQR", "test": "Binding affinity to human recombinant His-tagged full length ABL1 expressed in baculovirus expression system by TR-FRET assay"}, "[4]": {"test_system": "K562", "test": "Antiproliferative activity against human K562 cells assessed as cell growth inhibition measured after 24 hrs by WST-8 assay", "format": "functional, cell-based", "details": "K562, 24 h"}, "[5]": {"target": "Protein cereblon/Tyrosine-protein kinase ABL1/Breakpoint cluster region protein (Homo sapiens, UniProt P00519+P11274+Q96SW2)", "sequence (P00519 whole entry)": "as above", "sequence (P11274 whole entry)": "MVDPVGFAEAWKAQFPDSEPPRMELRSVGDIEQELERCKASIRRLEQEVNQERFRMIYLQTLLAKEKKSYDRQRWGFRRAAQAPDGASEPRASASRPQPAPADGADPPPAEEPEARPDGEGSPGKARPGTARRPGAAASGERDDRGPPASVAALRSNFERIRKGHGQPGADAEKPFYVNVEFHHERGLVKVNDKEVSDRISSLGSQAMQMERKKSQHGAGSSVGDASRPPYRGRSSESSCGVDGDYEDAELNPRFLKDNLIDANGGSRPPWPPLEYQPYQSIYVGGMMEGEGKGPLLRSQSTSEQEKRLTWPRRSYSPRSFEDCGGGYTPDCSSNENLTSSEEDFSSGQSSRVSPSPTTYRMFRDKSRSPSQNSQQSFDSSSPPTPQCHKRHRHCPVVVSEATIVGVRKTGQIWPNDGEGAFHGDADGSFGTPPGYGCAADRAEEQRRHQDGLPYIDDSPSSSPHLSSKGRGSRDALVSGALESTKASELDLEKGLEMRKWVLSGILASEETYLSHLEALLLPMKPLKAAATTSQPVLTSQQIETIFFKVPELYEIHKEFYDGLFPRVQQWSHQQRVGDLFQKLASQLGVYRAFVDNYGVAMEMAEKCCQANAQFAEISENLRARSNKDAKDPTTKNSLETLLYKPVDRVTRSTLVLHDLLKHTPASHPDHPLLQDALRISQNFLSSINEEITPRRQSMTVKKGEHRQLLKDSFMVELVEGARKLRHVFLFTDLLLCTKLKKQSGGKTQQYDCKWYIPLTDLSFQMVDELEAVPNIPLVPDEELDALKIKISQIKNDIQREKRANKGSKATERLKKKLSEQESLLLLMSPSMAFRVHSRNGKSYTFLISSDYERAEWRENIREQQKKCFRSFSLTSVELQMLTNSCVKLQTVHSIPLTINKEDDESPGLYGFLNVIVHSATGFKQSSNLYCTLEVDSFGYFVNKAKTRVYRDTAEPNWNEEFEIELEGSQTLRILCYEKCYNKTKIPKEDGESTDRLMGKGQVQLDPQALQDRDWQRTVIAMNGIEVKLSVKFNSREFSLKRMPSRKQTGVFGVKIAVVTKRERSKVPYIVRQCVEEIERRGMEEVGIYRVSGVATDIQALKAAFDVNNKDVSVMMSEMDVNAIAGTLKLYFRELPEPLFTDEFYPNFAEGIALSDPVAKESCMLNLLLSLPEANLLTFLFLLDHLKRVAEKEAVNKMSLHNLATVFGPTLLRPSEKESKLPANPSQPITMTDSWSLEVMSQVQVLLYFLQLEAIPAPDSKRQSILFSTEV", "sequence (Q96SW2 whole entry)": "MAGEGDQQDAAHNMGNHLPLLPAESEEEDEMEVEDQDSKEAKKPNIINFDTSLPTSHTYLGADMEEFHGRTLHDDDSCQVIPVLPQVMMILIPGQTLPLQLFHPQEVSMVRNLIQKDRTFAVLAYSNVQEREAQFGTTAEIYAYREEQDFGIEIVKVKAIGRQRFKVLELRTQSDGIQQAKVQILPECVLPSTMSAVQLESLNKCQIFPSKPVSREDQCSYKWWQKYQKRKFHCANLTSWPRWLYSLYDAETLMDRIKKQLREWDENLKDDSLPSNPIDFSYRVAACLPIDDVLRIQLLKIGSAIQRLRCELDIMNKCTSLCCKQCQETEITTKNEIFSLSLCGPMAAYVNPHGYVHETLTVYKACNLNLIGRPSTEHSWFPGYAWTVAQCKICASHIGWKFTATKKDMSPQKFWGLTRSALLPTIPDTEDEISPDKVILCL", "test": "Protac activity at CRBN/BCR-ABL in human K562 cells assessed as reduction in BCR-ABL protein levels incubated for 6 hrs by Western blotting analysis", "format": "cell-based"}, "[6]": {"test_system": "KCL-22", "test": "Antiproliferative activity against human KCL-22 cells assessed as cell growth inhibition measured after 24 hrs by WST-8 assay", "format": "functional, cell-based", "details": "KCL-22, 24 h"}, "[7]": {"test_system": "KU812 cell line", "test": "Antiproliferative activity against human KU812 cell line assessed as cell growth inhibition measured after 24 hrs by WST-8 assay", "format": "functional, cell-based", "details": "KU812, 24 h"}, "[8]": {"test_system": "K562", "test": "Antiproliferative activity against human K562 cells assessed as cell growth inhibition measured after 48 hrs by WST assay", "format": "functional, cell-based", "details": "K562, 48 h"}, "[9]": {"test_system": "K562", "test": "Antiproliferative activity against human K562 cells assessed as cell growth inhibition measured after 24 hrs", "format": "functional, cell-based", "details": "K562, 24 h"}, "[10]": {"target": "von Hippel-Lindau disease tumor suppressor/Tyrosine-protein kinase ABL1/Breakpoint cluster region protein (Homo sapiens, UniProt P00519+P11274+P40337)", "sequence (P00519 whole entry)": "as the sequence (P00519 whole entry) above", "sequence (P11274 whole entry)": "as the sequence (P11274 whole entry) above", "sequence (P40337 whole entry)": "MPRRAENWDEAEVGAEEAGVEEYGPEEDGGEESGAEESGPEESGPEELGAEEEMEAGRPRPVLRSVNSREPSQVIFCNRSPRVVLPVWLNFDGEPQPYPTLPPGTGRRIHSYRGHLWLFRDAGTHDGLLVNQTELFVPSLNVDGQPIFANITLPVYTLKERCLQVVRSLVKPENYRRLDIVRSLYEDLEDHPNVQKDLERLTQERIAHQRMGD", "test": "Protac activity at VHL/BCR-ABL in human K562 cells assessed as reduction in BCR-ABL protein levels by immunoblotting analysis", "format": "cell-based"}, "[11]": {"test": "Cmax in mouse at 10 mg/kg, po measured after upto 24 hrs by LC-MS/MS analysis", "format": "ADME, organism-based", "design": "dose 10 mg/kg, time < 24 hrs, route po", "details": "in vivo"}, "[12]": {"test": "Half life in mouse at 10 mg/kg, po measured after upto 24 hrs by LC-MS/MS analysis", "format": "ADME, organism-based", "details": "in vivo"}, "[13]": {"test_system": "K562", "test": "Antiproliferative activity against imatinib resistant human K562 cells assessed as cell growth inhibition measured after 48 hrs by MTT assay", "format": "functional, cell-based", "details": "K562, 48 h"}, "[14]": {"test": "Cytotoxicity against human CD34-positive/CD38-negative leukemic cell assessed as cell growth inhibition measured after 48 hrs by MTT assay", "format": "functional, cell-based"}, "[15]": {"test_system": "Leukemia cell", "test": "Cytotoxicity against human Leukemia cell assessed as cell growth inhibition measured after 48 hrs by MTT assay", "format": "functional, cell-based"}, "[16]": {"test_system": "K562", "test": "Antiproliferative activity against human K562 cells assessed as cell growth inhibition", "format": "functional, cell-based"}, "[17]": {"test_system": "BaF3", "test": "Antiproliferative activity against mouse BaF3 cells harbouring ABL-T315I mutant assessed as cell growth inhibition measured after 72 hrs by MTT assay", "format": "functional, cell-based", "details": "BaF3, 72 h"}, "[18]": {"test_system": "BaF3", "test": "cells", "details": "Mus musculus, BaF3, 72 h", "description": "Antiproliferative activity against mouse BaF3 cells harbouring wild type ABL assessed as cell growth inhibition measured after 72 hrs by MTT assay"}, "[19]": {"test": "AUC in BALB/c mouse at 30 mg/kg, po via gavage", "format": "ADME, organism-based", "design": "dose 30 mg/kg, route po", "details": "in vivo"}, "[20]": {"test": "Cmax in BALB/c mouse at 30 mg/kg, po via gavage", "format": "ADME, organism-based", "design": "dose 30 mg/kg, route po", "details": "in vivo"}, "[21]": {"test": "Tmax in BALB/c mouse at 30 mg/kg, po via gavage", "format": "ADME, organism-based", "details": "in vivo"}, "[22]": {"target": "Tyrosine-protein kinase Lyn (Homo sapiens, UniProt P07948)", "sequence (P07948 whole entry)": "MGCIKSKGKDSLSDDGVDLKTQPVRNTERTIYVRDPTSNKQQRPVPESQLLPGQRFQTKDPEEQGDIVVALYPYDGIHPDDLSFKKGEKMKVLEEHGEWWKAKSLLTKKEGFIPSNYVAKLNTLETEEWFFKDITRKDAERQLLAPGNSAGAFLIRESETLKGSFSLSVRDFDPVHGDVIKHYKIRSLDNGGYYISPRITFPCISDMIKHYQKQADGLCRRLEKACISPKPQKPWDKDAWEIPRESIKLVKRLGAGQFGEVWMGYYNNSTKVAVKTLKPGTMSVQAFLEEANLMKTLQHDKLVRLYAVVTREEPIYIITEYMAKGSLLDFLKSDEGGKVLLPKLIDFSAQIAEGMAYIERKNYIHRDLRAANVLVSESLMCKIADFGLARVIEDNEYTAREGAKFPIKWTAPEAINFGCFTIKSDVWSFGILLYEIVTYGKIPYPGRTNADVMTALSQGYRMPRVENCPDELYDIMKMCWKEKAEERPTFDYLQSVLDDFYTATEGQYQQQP", "test": "Inhibition of LYN (unknown origin) in presence of [gamma33P]-ATP and ATP by ELISA method"}, "[23]": {"test": "Half life in BALB/c mouse at 30 mg/kg, po via gavage", "format": "ADME, organism-based", "details": "in vivo"}, "[24]": {"test": "Oral bioavailability in BALB/c mouse at 30 mg/kg via gavage", "format": "ADME, organism-based", "details": "in vivo"}, "[25]": {"test_system": "K562", "test": "Antiproliferative activity against imatinib resistant human K562 cells assessed as cell growth inhibition measured after 24 hrs by MTT assay", "format": "functional, cell-based", "details": "K562, 24 h"}, "[26]": {"test": "Cytotoxicity against human Hematopoietic stem cell assessed as cell growth inhibition measured after 48 hrs by MTT assay", "format": "toxicity, cell-based", "details": "hematopoietic stem cells"}, "[27]": {"test": "Antiproliferative activity against human KM3 cells assessed as cell growth inhibition measured after 48 hrs by MTT assay", "format": "functional, cell-based", "details": "KM3, 48 h"}, "[28]": {"test": "Antiproliferative activity against human KM3 cells assessed as cell growth inhibition measured after 72 hrs by MTT assay", "format": "functional, cell-based", "details": "KM3, 72 h"}, "[29]": {"test": "Antiproliferative activity against human KM3 cells assessed as cell growth inhibition measured after 24 hrs by MTT assay", "format": "functional, cell-based", "details": "KM3, 24 h"}, "[30]": {"test_system": "KBM5", "test": "Antiproliferative activity against human KBM5 cells assessed as cell growth inhibition measured after 24 to 48 hrs by MTS assay", "format": "functional, cell-based"}, "[31]": {"test_system": "KBM5", "test": "Antiproliferative activity against human KBM5 cells harbouring T315I mutant assessed as cell growth inhibition measured after 24 to 48 hrs by MTS assay", "format": "functional, cell-based"}, "[32]": {"test_system": "K562", "test": "Antiproliferative activity against human K562 cells assessed as cell growth inhibition measured after 24 to 48 hrs by MTS assay", "format": "functional, cell-based"}}, "data": [{"smiles": "CO[C@H](C(=O)N1Cc2[nH]nc(NC(=O)c3ccc(N4CCN(C)CC4)cc3)c2C1)c1ccccc1", "values": [{"measurement": "IC50", "setting": "[1]", "result": 13, "unit": "nM"}, {"measurement": "inhibition in vivo at 30 mg/kg", "setting": "[2]", "result": 98, "unit": "%"}]}, {"smiles": "CN[C@@H](C)C(=O)N[C@H](C(=O)N1CCC[C@H]1c1nc(C(=O)c2cccc(OCCCOCC(=O)N3CCN(c4cc(Nc5ncc(C(=O)Nc6c(C)cccc6Cl)s5)nc(C)n4)CC3)c2)cs1)C1CCCCC1", "values": [{"measurement": "IC50", "setting": "[3]", "result": 0.54, "unit": "nM"}, {"measurement": "IC50", "setting": "[4]", "result": 8.92, "unit": "nM"}, {"measurement": "DC50", "setting": "[5]", "result": 10, "unit": "nM"}, {"measurement": "IC50", "setting": "[6]", "result": 8.06, "unit": "nM"}, {"measurement": "IC50", "setting": "[7]", "result": 6.72, "unit": "nM"}]}, {"smiles": "CN[C@@H](C)C(=O)N[C@H](C(=O)N1CCC[C@H]1c1nc(C(=O)c2ccc(OCCOCCOCCOCC(=O)N3CCN(c4cc(Nc5ncc(C(=O)Nc6c(C)cccc6Cl)s5)nc(C)n4)CC3)cc2)cs1)C1CCCCC1", "values": [{"measurement": "IC50", "setting": "[8]", "result": 8.6, "unit": "nM"}]}, {"smiles": "Cc1ncsc1-c1ccc(CNC(=O)[C@@H]2C[C@@H](O)CN2C(=O)[C@@H](NC(=O)COCCNc2ccc(C(=O)Nc3ccc(OC(F)(F)Cl)cc3)cc2-c2cc[nH]n2)C(C)(C)C)cc1", "values": [{"measurement": "IC50", "setting": "[9]", "result": 169, "unit": "nM"}, {"measurement": "DC50", "setting": "[10]", "result": 30, "unit": "nM"}, {"measurement": "Cmax", "setting": "[11]", "result": 536, "unit": "ng/mL"}, {"measurement": "half-life", "setting": "[12]", "result": 220, "unit": "min"}]}, {"smiles": "COc1ccc2cc1Oc1ccc(cc1)C[C@H]1c3cc(c(OC)cc3CCN1C)Oc1c(OC)c(OC)cc3c1[C@H](C2)N(C)CC3.O=C(O)CC(O)(CC(=O)O)C(=O)O", "values": [{"measurement": "IC50", "setting": "[13]", "result": 1.2, "unit": "µg/mL"}, {"measurement": "IC50", "setting": "[14]", "result": 1.2, "unit": "µg/mL"}, {"measurement": "IC50", "setting": "[15]", "result": 1.2, "unit": "µg/mL"}]}, {"smiles": "COc1cc2c3cc1Oc1c(OC)c(OC)cc4c1[C@@H](Cc1ccc(OC(=O)c5ccc(Cl)cc5)c(c1)Oc1ccc(cc1)C[C@@H]3N(C)CC2)N(C)CC4", "values": [{"measurement": "IC50", "setting": "[16]", "result": 0.5, "unit": "µg/mL"}]}, {"smiles": "O=C(Nc1c[nH]nc1-c1nc2ccc(CN3CCOCC3)cc2[nH]1)NC1CC1", "note": "[AT-9283]", "values": [{"measurement": "IC50", "setting": "[17]", "result": 11, "unit": "nM"}, {"measurement": "IC50", "setting": "[18]", "result": 13, "unit": "nM"}]}, {"smiles": "Cc1ccc(NC(=O)c2ccc(CN3CC[C@H](N(C)C)C3)c(C(F)(F)F)c2)cc1Nc1nccc(-c2cncnc2)n1", "note": "[BAFETINIB]", "values": [{"measurement": "AUC", "setting": "[19]", "result": 2290, "unit": "ng·h/mL"}, {"measurement": "Cmax", "setting": "[20]", "result": 661, "unit": "ng/mL"}, {"measurement": "Tmax", "setting": "[21]", "result": 2, "unit": "h"}, {"measurement": "IC50", "setting": "[22]", "result": 19, "unit": "nM"}, {"measurement": "half-life", "setting": "[23]", "result": 60, "unit": "min"}, {"measurement": "bioavailability", "setting": "[24]", "result": 32, "unit": "%"}]}, {"smiles": "COc1cc2c3cc1Oc1c(OC)c(OC)cc4c1[C@@H](Cc1ccc(O)c(c1)Oc1ccc(cc1)C[C@@H]3N(C)CC2)N(C)CC4", "note": "[BERBAMINE]", "values": [{"measurement": "IC50", "setting": "[25]", "result": 17.1, "unit": "µM"}, {"measurement": "IC50 at 48 h", "setting": "[26]", "result": 185, "unit": "µg/mL"}, {"measurement": "IC50", "setting": "[13]", "result": 11.1, "unit": "µM"}, {"measurement": "IC50", "setting": "[27]", "result": 5.09, "unit": "µg/mL"}, {"measurement": "IC50", "setting": "[28]", "result": 3.84, "unit": "µg/mL"}, {"measurement": "IC50", "setting": "[29]", "result": 8.17, "unit": "µg/mL"}]}, {"smiles": "COc1ccc(-c2cc(=O)c3c(O)cc(O)cc3o2)cc1O", "note": "[DIOSMETIN]", "values": [{"measurement": "IC50", "setting": "[30]", "result": 8.52, "unit": "µM"}, {"measurement": "IC50", "setting": "[31]", "result": 6.46, "unit": "µM"}, {"measurement": "IC50", "setting": "[32]", "result": 8.42, "unit": "µM"}]}]}
